In PMC5707064, “Proteoglycan-targeting applied to hypoxia-activated prodrug therapy in chondrosarcoma: first proof-of-concept” (Oncotarget, 2017):
Like-named read-outs stand apart in the source and are kept apart here.

What was measured:
[1] = test system: HEMC-SS chondrosarcoma cells (monolayer); experiment: In vitro proliferation assay (AlamarBlue), HEMC-SS monolayer culture; assay type: cell-based, human; settings: for IC50: Homo sapiens; for HCR (hypoxic-cytotoxic ratio) Monolayer: normoxia vs hypoxia IC50
Protocol: Human HEMC-SS chondrosarcoma cell line was obtained from the European Collection of Authenticated Cell Cultures and cultured in DMEM/F12 medium (Life Technologies) supplemented with 10% fetal calf serum (Dutscher) and 4 μg/mL gentamicin.
(§1) After trypsinization, HEMC-SS cells were seeded in 96-well plates at a density of 20.10^3 cells in 150 μL of the corresponding culture medium and allowed to adhere overnight. For 3D cell culture, Day 10 spheroids were used. Increasing drug concentrations diluted in DMSO (maintaining final DMSO concentration at 0.5% (v/v)) were added. After plate incubations for 24 hours in normoxic (21% O2, 5% CO2, 37 °C) or hypoxic (N2, O2 < 0.3%, 37 °C) conditions, the culture media were removed and 2D and 3D cells were washed with PBS and left to grow for 48 hours in normoxic conditions. Viability of cells cultured in monolayer or spheroids was quantified by AlamarBlue assay. Cytotoxic activity was expressed as the drug concentration that inhibited cell growth by 50% (IC50). Experiments were performed in triplicates. Data are represented as means ± SD. Statistical significance was determined using one-way ANOVA followed by Tukey's post-hoc multiple comparisons test. Results were considered significant at p < 0.05.

[2] = test system: HEMC-SS xenograft model; experiment: In vivo antitumor efficacy on HEMC-SS xenograft model; design: species or system SCID mice; settings: for Antitumor effect (tumor volume vs controls): 6 i.v. injections at 4-day intervals, 8-QA and 8 47.0 μmol/kg, 10-QA 46.7 μmol/kg
Protocol: In vivo studies were carried out on 50 female Severe Combined ImmunoDeficiency (SCID) mice aged 4–5 weeks old (Janvier Labs). All animal studies were carried out in accordance with the directive 2010/63/EU after approval by the institutional review board (C2E2A, authorization #CE85-12).
To obtain in vivo tumors, 10^7 HEMC-SS cells in 100 μL of PBS were injected with 100 μL of Matrigel® (BD Biosiences) subcutaneously into the right flank of the mice.
The antitumor efficiency of 8-QA was first studied respectively to its non-QA equivalent (8) used as negative control for proteoglycan targeting. In a second independent study, we evaluated the antitumor activity of non-hypoxia activated derivative (10-QA) used as negative control of hypoxia activation, respectively to another control group. For both studies, at 21 days post-cell inoculation mice were randomized into three or two groups (10–12 animals per group). Treatment protocol consisted in 6 doses at 4-day intervals injected by i.v route: 8-QA (47.0 μmol/kg) and 10-QA (46.7 μmol/kg)were injected at 50% of Maximum Tolerated Dose (MTD) while non-targeted derivative 8 (47.0 μmol/kg) was injected at equimolar dose of 8-QA. All molecules were diluted in saline with 2% ethanol. Control animals received vehicle according to the same schedule.
Tumor volume (TV) was calculated using the following formula:
TV (mm^3) = [length x (width)^2]/2.
Tumor Growth Inhibition (TGI) was calculated as follows: TGI (%) = [1-(Tn/Cn)] × 100, where Tn is the tumor volume of the treated group at day n and Cn the tumor volume of the control group at day n.
Data are represented as means ± SD. For antitumor efficiency and mouse weight monitoring, statistical significance was determined using two-way ANOVA. For tumor weight, mitosis number and hematological analyses, statistical significance was determined using one-way ANOVA. Both tests were followed by Tukey's post-hoc multiple comparisons test. Results were considered significant at p < 0.05.

[3] = Side-effect evaluation (mouse weight, hematology, articular cartilage); assay type: in vivo, SCID mice; settings: compared to controls; for Mouse weight loss during treatment: 6 i.v. injections at 4-day intervals
Protocol: To assess side effects, mouse weight was monitored and pathology analyses on healthy articular cartilage and hematological analyses were carried out at 24 hours after the last injection. Approximately 50 μL of blood, obtained by retro-orbital sampling, were analyzed on a Melet Schloesing MS9-5 Hematology Analyzer (n = 5 blood samples per group of treatment) (Diamond diagnostics).
Mouse paws (n = 5 per group of treatment) were fixed in 10% neutral buffer formalin, decalcified with 4.13% EDTA and 0.2% paraformaldehyde in PBS for 96 hours using KOS microwave tissue processor (Milestone), and embedded in paraffin. Then, 4–5-μm thick sections were stained by Toluidine Blue (pH 2.5) to visualize aggrecan or by Masson trichrome to visualize collagen. All images were captured with NanoZoomer (Hamamatsu).

[4] = test system: aggrecan from bovine articular cartilage; experiment: Surface plasmon resonance (SPR) binding to immobilized aggrecan; settings: for Binding to aggrecan (sensorgrams): analytes injected at 0.0625-1 mM, 600 seconds; for Kd: steady-state affinity analysis, ligand: immobilized aggrecan, triplicate, read-out: Dissociation constant (KD)
Protocol: SPR assay was carried out on a Biacore T200 instrument (GE Healthcare) with a CM4 sensor chip (GE Healthcare). To immobilize aggrecan from bovine articular cartilage (Sigma-Aldrich), the sensor chip was first activated using a 1:1 mixture of 0.2 M 1-ethyl-3-(3-dimethylaminopropyl)carbodiimide hydrochloride and 0.5 M N-hydroxysuccinimide (amine coupling kit, GE Healthcare) at a flow rate of 5 μL/min for 10 minutes. Aggrecan was then coated on the sensor chip at 400 μg/mL in running buffer HBS-P^+ 1X (0.01 M HEPES, 0.15 M NaCl, 0.05% v/v surfactant p20, pH 7.4) with 6 mM hexadecyltrimethylammoniumbromide (CTAB) at 5 μL/min to a level of ~500 response units. Unoccupied binding sites were blocked using 1 M ethanolamine (pH 8.5) (Amine coupling kit, GE Healthcare) at 5 μL/min during 10 minutes. The studied molecules (analytes) were diluted in running buffer HBS-P^+ 1X before application to the sensor chip at 30 μL/min. Regeneration of the sensor chips was achieved using 2 M NaCl solution during 150 seconds. Dissociation constants (KD) were determined using Biacore T200 Evaluation software with a “steady-state affinity analysis” after injection of five different concentrations of analytes.

[5] = test system: human osteosarcoma Saos-2 cells; experiment: Cytotoxic activity on osteosarcoma Saos-2 cells; assay type: cell-based; settings: hypoxic conditions, unpublished data of the authors
[6] = test system: HEMC-SS spheroids; experiment: In vitro proliferation assay (AlamarBlue), HEMC-SS Day 10 spheroids; assay type: cell-based, human; settings: for IC50: Homo sapiens, 24 hours exposure then 48 hours in normoxia; for HCR (hypoxic-cytotoxic ratio) Spheroids: normoxia vs hypoxia IC50
Protocol: To generate HEMC-SS spheroids, cells were harvested from culture flasks by trypsinization and seeded in 96-well non-adherent plates (Nunc) with 100 μL of 0.5% methylcellulose (Bio-Techne) diluted in the corresponding medium at a density of 1000 cells per well. Cultures were maintained in a 5% CO2 humidified environment at 37°C.
as §1

[7] = test system: HEMC-SS cells; experiment: Cell cycle determination and apoptosis (Annexin V) evaluation by flow cytometry; assay type: cell-based, human
Protocol: At 24 hours before treatment, 1.10^6 HEMC-SS cells were seeded in 6-well plates (Nunc) at 3 mL/well of corresponding culture media. Cells were treated with 8-QA compound at 25 μM, 50 μM, or 100 μM final concentrations for 24 hours, under either normoxic (21% O2, 5% CO2, 37°C) or hypoxic (N2, O2 < 0.3%, N2, 37°C) conditions. After incubation, the cells were harvested by trypsinization. The cell suspension containing both floating and adherent cells was centrifuged (400 g, 8 min at +4°C) in PBS. Cell cycle analyses were carried out by resuspending cells in 500 μL of ribonuclease 1 (1 mg/mL) added with 500 μL of propidium iodide (1 mg/mL) (Sigma Aldrich), and apoptotic cells were detected using the Annexin V-FITC kit (Miltenyi Biotec). The cell cycle distribution and proportion of apoptotic cells were analyzed by flow cytometrey (LSR II flow cytometer, BD Biosciences). Experiments were performed in triplicates. Data are represented as means ± SD. For cell cycle analyses, statistical significance was determined using two-way ANOVA followed by Tukey's post-hoc multiple comparison test. For Annexin V test, significance was determined using two-way ANOVA followed by Bonferroni's post-hoc multiple comparison test.

[8] = test system: HEMC-SS xenograft tumors; experiment: Characterization of treated tumors (histology, western blot, immunohistochemistry); assay type: in vivo, SCID mice; settings: for γH2AX-positive cells in pimonidazole-positive hypoxic tumor areas: immunostaining on consecutive tumor sections
Protocol: The day after the last dose, 50% of animals of each group were euthanized by CO2 inhalation, and tumors were sampled for histology and immunohistochemistry analyses (n≥3 tumors samples per group of treatment).
Approximately 30 μg of proteins from tumors (n = 3 independent tumor samples per group of treatment) recovered one day after last dose were loaded onto 10% acrylamide gels and separated by SDS-PAGE. Proteins were then transferred to nitrocellulose membranes (Millipore) and incubated with specific primary antibodies p53S15 (Cell Signaling), p21 (Santa Cruz), p-Chk1 (S345) (Cell Signaling) or GAPDH (Santa Cruz) used as housekeeping protein. Antibody-antigen interaction was evidenced by chemiluminescence (Amersham) using HRP-conjugated secondary antibodies (Southern Biotech). Signal was detected and quantified using Image Lab software (BioRad). Data are represented as means ± SD. Statistical significance was determined using one-way ANOVA followed by Tukey's post-hoc multiple comparisons test. Results were considered significant at p < 0.05.
For tumors, the exogenous hypoxia marker pimonidazole hydrochloride (Hypoxyprobe™) was i.p.-injected at 60 mg/kg one hour before mice were euthanized. Tumors were removed, fixed in 10% neutral buffered formalin, and embedded in paraffin. For spheroid cultures, pimonidazole was added at a final concentration of 200 μM two hours before fixation and paraffin-embedding.
Five μm-thick sections were cut and adhered to poly-L-Lysine-coated glass microscope slides. After deparaffinization and rehydration, slides were stained by haematoxylin–eosin (H&E) or Alcian blue (pH 1) to visualize aggrecan or used for immunohistochemistry. After antigen retrieval, endogenous peroxidase quench and saturation, slides were incubated with the primary antibody: anti-Ki 67 (Abcam) rabbit polyclonal antibody (1/2000, 11 hours, RT), anti-pimonidazole (Hypoxyprobe™) mouse monoclonal antibody (1/100, 30 minutes, RT) or anti-phospho-histone-H2AX (Merck Millipore) mouse monoclonal antibody (1/2000, 11 hours, RT). HRP-conjugated rabbit anti-mouse IgG1 secondary antibody (Hypoxyprobe, 1/100, 30 minutes, RT) was used to detect pimonidazole adduct and a biotinylated goat anti-mouse IgG1 secondary antibody (Vector Laboratories, 1/500, 1 hour) was used to detect anti-Ki-67 and anti-phospho-histone-H2AX. Biotin was then complexed with streptavidin-coupled HRP (Vector Laboratories, 1/500, 30 minutes). HRP was detected using a DAB ultravision detection system (Thermo Scientific).

[9] = hypoxia (N2, O2 < 0.3%), 24 hours exposure then 48 hours in normoxia, read-out: IC50 Monolayer Hypoxia
[10] = normoxia (21% O2), 24 hours exposure then 48 hours in normoxia, read-out: IC50 Monolayer Normoxia
[11] = hypoxia (N2, O2 < 0.3%), read-out: IC50 Spheroids Hypoxia
[12] = normoxia (21% O2), read-out: IC50 Spheroids Normoxia
[13] = tumors sampled one day after last injection

Row | SMILES | IC50 [1, 9] [µM] | IC50 [1, 10] [µM] | HCR (hypoxic-cytotoxic ratio) Monolayer [1] | Antitumor effect (tumor volume vs controls) [2] | Mouse weight loss during treatment [3] | Binding to aggrecan (sensorgrams) [4] | Kd [4] [µM] | IC50 [6, 11] [µM] | IC50 [6, 12] [µM] | S/M (spheroid/monolayer cytotoxic ratio) Hypoxia [6] | S/M (spheroid/monolayer cytotoxic ratio) Normoxia [6] | HCR (hypoxic-cytotoxic ratio) Spheroids [6] | γH2AX-positive cells in pimonidazole-positive hypoxic tumor areas [8] | also measured
1 | Cn1c(COP(=O)(NCCC[N+](C)(C)C)N(CCCl)CCCl)cnc1[N+](=O)[O-] (stereo not shown) [8-QA] | 4.3 ± 1.2 | 29.3 ± 8 | 6.8 | significant antitumor effect | did not cause any weight loss | dose-dependent binding | 890 | 31.8 ± 5.5 | 101 ± 32.6 | 7.4 | 3.4 | 3.1 | strong increase of γH2AX-positive cells | Tumor growth inhibition (TGI) at D41 ([2]; 47 μmol/kg i.v., q4d x 6, day after last injection (D41)): 62.1%; Tumor weight ([2]; one day after the last injection, normalized to control group): significant decrease; IC50 [5]: 132 ± 29 µM; Cell cycle distribution in hypoxia ([7]; hypoxia (N2, O2 < 0.3%), 25, 50, 100 μM for 24 hours): high accumulation of cells in S and SubG0/G1 phases; Annexin V positive cells (cell death vs control) ([7]; hypoxia, 100 μM, 24 hours): 4.1 fold; Cell cycle distribution in normoxia ([7]; normoxia (21% O2), 25, 50, 100 μM for 24 hours): increase in S-phase; Mitotic index in tumor tissues ([8]; H&E, tumors sampled at D41, 47.0 μmol/kg i.v. q4d x 6): 9.7 ± 9.0 mitosis per 10 fields; Phosphorylated-p53 (S15) in tumors, western blot [8, 13]: significant increased of phosphorylated-p53 (S15); p21 in tumors, western blot [8, 13]: induction of p21; p-CHK1 in treated tumor samples, western blot [8, 13]: no increase of p-CHK1
2 | C[N+](C)(C)CCCNP(=O)(OCc1ccccc1)N(CCCl)CCCl (stereo not shown) [10-QA] | > 200 | > 200 | – | no antitumor effect | did not cause any weight loss | dose-dependent binding | 4100 | > 200 | > 200 | – | – | – | did not cause any γH2AX-positive cells | IC50 ([1]; read-out: IC50 (cytotoxicity in any of the experimental conditions)): > 200 µM
3 | CCCNP(=O)(OCc1cnc([N+](=O)[O-])n1C)N(CCCl)CCCl (stereo not shown) [compound 8] | 4.3 ± 1.2 | 32.5 ± 4.3 | 7.5 | no antitumor efficacy | did not cause any weight loss | no affinity | – | 5.7 ± 1.2 | 99.4 ± 5.2 | 1.3 | 3.1 | 17.4 | did not cause any γH2AX-positive cells | White blood cell count ([3]; 24 hours after the last dose): significant decrease in white blood cell count
